From patent US20250060373A1, “NOVEL ASSAY AND NOVEL METHODS OF TREATING HUTCHINSON-GILFORD PROGERIA SYNDROME” (The Progeria Research Foundation, priority 2021, published 2025)

Tests used:
plasma progerin = assay: Plasma progerin (SMC Progerin Immunoassay) in HGPS clinical trial patients on therapy; format: in vivo, human
Source text: An SMC ultrasensitive immunoassay for the detection of plasma progerin was developed. Overall, the assay employed a sandwich immunoassay format with an anti-lamin A capture antibody coated on magnetic microparticles, and an anti-progerin specific detection antibody conjugated to a fluorescent tag (FIG. 1) run in a 96-well plate. Progerin-bound detection antibody was eluted and read as single molecules using a confocal laser.
The SMC assay for measuring Progerin was as previously described (Todd et al.), except that magnetic microparticles (MP) coated with capture antibodies and detection reagents were specific to the progerin assay (FIG. 1). […] Progerin-bound detection antibody was then eluted by pH shift using a proprietary glycine buffer, transferred to a new plate and detected by SMC using the Erenna Immunoassay System software (SgxLink™). The raw signal data and the interpolated value data obtained from SgxLink were transferred to Excel where precision was then calculated for the replicate wells. […]
For analysis, samples were fully thawed at RT for <5 min, lightly mixed, diluted in standard diluent before transferring into filter plate wells (MilliporeSigma MSBVN1210). […] Filtrate was then assessed as described. […]

children with HGPS = children with HGPS treated with lonafarnib in clinical trials; cited from earlier work

What does the source list for `NC(=O)N1CCC(CC(=O)N2CCC([C@H]3c4ncc(Br)cc4CCc4cc(Cl)cc(Br)c43)CC2)CC1` [lonafarnib]?
average progerin, lonafarnib monotherapy extension visits versus consecutive Triple Therapy visits (plasma progerin; 10 patients, extension of additional 4.1±0.5 years, p=0.99): no significant differences; progerin at 150 mg/m^2 versus the 115 mg/m^2 dose (plasma progerin; ProLon1, each of the 4 trial visits after the 8-month visit, N=22-25, all p<0.05): significantly decreased; increased survival, estimated, on average (children with HGPS): 2.5 years
